In US7923021B2, “Local delivery method and composition” (University of Memphis Research Foundation, priority 2007, dated 2011):
≈ marks a conversion by molar mass, not a printed value.

Key:
[1] = tested on: Pseudomonas aeruginosa strain ATCC 27317; assay: Biological activity testing of eluates and antibiotic dilutions, growth in TSB, A530; format: cell-based; conditions: P. aeruginosa ATCC 27317, observed
Procedure: Pseudomonas aeruginosa strain ATCC 27317 was used for biological activity testing of AmikacinTM and GentamicinTM eluates. A clinical isolate of Staphylococcus aureus Cowan I strain was used to assess activity of VancomycinTM eluates. The eluate having the lowest concentration for each antibiotic at each of the specified time points was used in the biological activity assay. P. aeruginosa or S. aureus was grown overnight at 37° C. in Trypticase soy broth (TSB). Conical tubes were prepared with 1.75 ml of TSB and 200 μl of antibiotic dilutions (AmikacinTM: 0-640 μg/ml, GentamicinTM: 0-2560 μg/ml, VancomycinTM: 0-160 μg/ml), or 200 μl eluate samples, or 200 μl buffer. All tubes except blanks were inoculated with 50 μl of 1:50 dilution of bacteria. Blanks were supplanted with an additional 50 μl of TSB instead of bacteria. The tubes were vortexed and incubated at 37° C. for 24 hours. A blank was used to adjust the spectrophotometer to zero, and the absorbance at 530 nm ([…]) was recorded. Results were reported as percent growth relative to control, calculated as ([…] sample/[…] control)×100. This method dilutes the sample concentration by a factor of 10. Testing was repeated for three replicates of the samples.

[2] = Elution of antibiotic from pellets or flakes into PBS at 37° C., Fluorescence Polarization Immunoassay; format: physicochemical; conditions: from rapidly resorbing pellets loaded with 4% antibiotic, FIG. 2
Procedure: Elution was characterized by placing groups of eight pellets or the flakes of eight pellets (n≧3) in 20 ml phosphate buffered saline (PBS) in a 37° C. water bath. At specified times (t=1, 4, 8, 12, 24, 36, 48, 72, 96, 120, 144, 168, 240 hours), aliquots were removed and frozen at -40° C. At each time interval, the pellets were removed and placed in 20 ml fresh PBS. The amount of antibiotic in the eluates was determined (μg/ml) using a Florescence Polarization Immunoassay ([…], Abbott Laboratories, Abbott Park, Ill.). Testing was repeated for three batches of pellets.

Compound | minimum inhibitory concentration (MIC) [1] [µg/mL] | Elution profile (qualitative) [2] | MIC ([1]; Pseudomonas aeruginosa, ATCC27317, read-out: minimum inhibitory concentration (MIC)) [µg/mL]
Gentamicin [Gentamicin™] | 4.0 | peak at hour one and decrease exponentially | 
NCC[C@H](O)C(=O)N[C@@H]1C[C@H](N)[C@@H](O[C@H]2O[C@H](CN)[C@@H](O)[C@H](O)[C@H]2O)[C@H](O)[C@H]1O[C@H]1O[C@H](CO)[C@@H](O)[C@H](N)[C@H]1O [Amikacin™, Amikacin] |  | peak at hour one and decrease exponentially | 4 (≈ 6.83 µM)
CN[C@H](CC(C)C)C(=O)N[C@H]1C(=O)N[C@@H](CC(N)=O)C(=O)N[C@H]2C(=O)N[C@H]3C(=O)N[C@H](C(=O)N[C@H](C(=O)O)c4cc(O)cc(O)c4-c4cc3ccc4O)[C@H](O)c3ccc(c(Cl)c3)Oc3cc2cc(c3O[C@@H]2O[C@H](CO)[C@@H](O)[C@H](O)[C@H]2O[C@H]2C[C@](C)(N)[C@H](O)[C@H](C)O2)Oc2ccc(cc2Cl)[C@H]1O [Vancomycin™, Vancomycin] |  | burst of antibiotic in hour one | 
